Series [1] deals with U87MG cells. The experiment in a line: MTS cytotoxicity assay. The class given is cell-based. The settings on record: Homo sapiens, U-87 MG, serum-free medium, 4 h treatment, read at 48 h. The procedure:
Two assays were performed to determine the cytotoxicity effect of LNC-rapa on the glioblastoma cell line U87MG:MTS (3-(4,5-dimethylthiazol-2-yl)-5-(3-carboxymethoxyphenyl)-2-(4-sulfophenyl)-2H-tetrazolium) (Promega, Charbonnières, France) and clonogenic assay by crystal violet coloration (Sigma-Aldrich).
For the MTS assay, U87MG cells (5 × 10^4 cells/mL) harvested in the exponential growth phase were seeded in a 24-well plate in DMEM medium with 10% FBS, in humidified atmosphere (5% CO2) at 37°C. Once the cells incubated in the exponential growth phase, serum-contained medium was removed and replaced by serum-deprived DMEM supplemented with 1% N1 supplement (Sigma-Aldrich). […] 8Gy radiation was performed 6 h after the onset of initial treatment by Faxitron CP-160 (Faxitron X-rays, Lincolnshire, UK). Medium was changed every day. Forty-eight hours following the treatment, MTS reagent was diluted (1:5) in U87MG cell medium and incubated for 2 h at 37°C. The absorbance was measured at 492 nm using Multiskan® microplate spectrophotometer (Thermo Scientific).
Depending on the condition considered, the cells were placed throughout the experiment in a conventional 21% O2 incubator at 37°C/5% CO2 (normoxia) or 0.4% O2 (hypoxia) at 37°C/5% CO2 in an InVivO2 400 SCI-tive hypoxia workstation (Ruskinn); they are only placed in isolated flasks for the duration of the irradiations.
(In general: Formazan colour is commonly taken as a measure of viable cells.)

Series [2] is described as follows: Spectral analysis of rapamycin stability in Labrafac. The class given is physicochemical. The settings on record: short cycles of heating and cooling at 70°C. The source says: Spectral analysis was then made by use of the CLARIOstar microplate reader (BMG Labtech, Champigny-sur-Marne, France).
For series [3], the system named is phosphorylation of Akt on Ser473. The experiment in a line: Western blot Akt-p. The class given is cell-based, Human. Particulars: U87MG, 1 μM, 21 and 0.4% O2, 0Gy. The procedure: (§1) U87MG cells (2.4 × 10^5 cells/mL) harvested in the exponential growth phase were seeded in dishes in DMEM medium with 10% FBS, at 37°C in humidified atmosphere containing 5% CO2 and 21 or 0.4% O2. Once the cells incubated in the exponential growth phase, serum-contained medium was removed and replaced by serum-deprived DMEM supplemented with 1% N1 supplement. […] 8Gy radiation was performed 6 h after the treatment by Faxitron CP-160 (cf. section Irradiation Procedure).
(§2) Cells were scrapped and lysed by sonication for 10 s.
(§3) Equal amounts of protein from each sample, estimated by the Bio-Rad Protein Assay (Richmond, CA), were separated by electrophoresis through a 4–20% SDS-polyacrylamide gel (Mini-protean® TGX™ Ge, BioRad), transferred to PVDF membranes (AmershamHybond, GE Healthcare, Buckinghamshire, UK) and blocked with 4% non-fat dry milk in 1X TBS plus 0.1% Tween 20 at RT for 1 h. The membranes were washed and incubated with a primary antibody diluted in 2% BSA in 1X TBS plus 0.1% Tween 20 overnight at 4°C. The membranes were then washed and incubated again for 1 h at RT with peroxidase-conjugated anti-rabbit or anti-mouse secondary antibody. The bound antibody was detected using the enhanced chemiluminescence reagent kit SuperSignal West Femto (Thermo Scientific, Waltham, MA, USA) and read with a bioluminescence detector Image Quant Las 4000 (GE Healthcare, USA).
In general terms: In western blotting, separated proteins are transferred to a membrane and probed.

For series [4] the following is noted: no reference given; cited from earlier work.
For series [5], the system named is mTOR phosphorylation (Ser2448). Description: Western blot p-mTOR/HSC70. The class given is cell-based, Human. The settings on record: U87MG, 1 μM, serum-free medium, 21 and 0.4% O2, 16 h.
Series [6] has as its system HIF-1α protein expression. The experiment in a line: Western blot HIF-1α. The settings on record: U87MG, 1 μM, 21 and 0.4% O2, 0Gy. In kind it is cell-based, Human. The procedure: as §1, §2, §3
Series [7] has as its system U87MG cells. The experiment in a line: Clonogenic assay by crystal violet coloration. The class given is cell-based, Human. The settings on record: 1 μM. The procedure:
Irradiation was performed with the CP-160 cabinet x-ray system (Faxitron, Edimex, Le Plessis Grammoire, Angers, France) which delivers a dose of 1,5 grays by min. […] Irradiation was performed with cells covered.
Once the cells incubated in the exponential growth phase, serum-contained medium was removed and replaced by serum-deprived DMEM supplemented with 1 % N1 supplement. […] 8Gy radiation was performed 6 h after the treatment by Faxitron CP-160.

Series [8] concerns 9L cells (rat glioma cells). Details: method as in Tyler et al., 2011. Particulars: in vitro, ref Tyler et al., 2011; cited from earlier work.
Series [9] is described as follows: Rapamycin solubility assay in oils (RP-HPLC). The class given is physicochemical. The protocol:
[…] […] The mixture of 90% acetonitrile and 10% water (v/v) was used as a mobile phase, and delivered at a flow rate of 2.0 mL/min. The injection volume was 10 μL and the retention time was about 2.3 min.

SMILES strings stand for the structures.

For orientation: IC50 means the concentration that gives 50% inhibition. Usually logP stands for a log measure of how a compound divides between an organic and an aqueous phase. For `CO[C@H]1C[C@@H]2CC[C@@H](C)[C@@](O)(O2)C(=O)C(=O)N2CCCC[C@H]2C(=O)O[C@H]([C@H](C)C[C@@H]2CC[C@@H](O)[C@H](OC)C2)CC(=O)[C@H](C)/C=C(\C)[C@@H](O)[C@@H](OC)C(=O)[C@H](C)C[C@H](C)/C=C/C=C/C=C/1C` [Rapamycin], the values for the 50% inhibitory concentration (IC50) with U87MG cells [1] (0.4% pO2 (hypoxia)) and in the series on U87MG cells [1] (21% pO2 (normoxia)) were 34.6 µM and 20.5 µM, respectively. The “Stability of rapamycin in Labrafac” value in series [2] is recorded as “confirmed”. For the same compound, the “Akt-p protein level (Ser473)” value in [3] was “enhance Akt-p protein level”. The logP in [4] was 4.3. Further, the “Inhibition of mTOR phosphorylation (Ser2448)” value in series [5] was “strong inhibition of mTOR phosphorylation”. Further, the HIF-1α protein expression result in series [6] is “reduced”. In the series on U87MG cells [7] (8Gy 6 h after treatment, 21 or 0.4% O2), the “Synergistic effect with radiation treatment (clonogenic assay)” value was “do not exert any synergistic effect”. The “Effect on cell survival (clonogenic assay)” value in the series on U87MG cells [7] (21 or 0.4% O2, 10 days, significant at 0.4% O2) was “only moderate effects”. Also, the “concentration causing growth inhibition” value in [8] was 0.01 µg/mL. Further, in series [9] (90°C, 3 h, whatever the oil used), the “Degradation at 90°C in oil” value was “completely degraded”. Moreover, the Dissolution rate in series [9] (Captex 8000, 90°C) is listed as 0%; in series [9] (Captex 8000, RT), 9.5%; in [9] (Labrafac, 90°C), 0%; in series [9] (Labrafac, RT), 6.3%; in series [9] (Miglyol 812, 90°C) it was 0%; in series [9] (Miglyol 812, RT), 7.3%. Also, the Dissolved rapamycin in series [9] (Captex 8000, 90°C, initial 16.8 mg/mL) is 0 mg/mL; in series [9] (Captex 8000, RT, initial 19.0 mg/mL), 1.8 mg/mL; in [9] (Labrafac, 90°C, initial 21.1 mg/mL), 0 mg/mL; in [9] (Labrafac, RT, initial 24.0 mg/mL), 1.5 mg/mL; in series [9] (Miglyol 812, 90°C, initial 17.1 mg/mL) it was 0 mg/mL; in series [9] (Miglyol 812, RT, initial 19.2 mg/mL), 1.4 mg/mL.
